Consider 2 compounds from patent publication US20110052730A1, “Leaves Extract of Panax sp., a Process of Making the Same and Uses Thereof” (UNIGEN, INC., priority 2008, published 2011).

The nature of the data set: Physicochemical properties of ginsenosides (soluble in).

In the case of `CC(C)=CC/C=C(/C)C1CCC2(C)C1[C@H](O)CC1[C@@]3(C)CCC(OC4OC(CO)C(O)C(O)C4OC4OC(CO)C(O)C(O)C4O)C(C)(C)C3CC[C@]12C` (some centres unmarked) [Rg5], the “Soluble in” value is recorded as “Alcohol”.
With `C=C(CCC=C(C)C)C1CCC2(C)C1[C@H](O)CC1[C@@]3(C)CCC(OC4OC(CO)C(O)C(O)C4OC4OC(CO)C(O)C(O)C4O)C(C)(C)C3CC[C@]12C` (some centres unmarked) [Rk1] the entry was “Alcohol”.
